11 compounds from patent US10849897B2, “Pyridyl derivatives as bromodomain inhibitors” (GLAXOSMITHKLINE INTELLECTUAL PROPERTY (NO.2) LIMITED, priority 2017, dated 2020) can be followed below.

One assay concerns the target T1, BRD4 BD2 (Homo sapiens, UniProt O60885, Y97A).
T1 construct: BRD4 (1-477) (Y97A) and (Y390A); made in house; host or cells: E. coli (pET15b vector)
Description: BRD4 BD2 TR-FRET competition assay. Format: binding. The following applies: TR-FRET competition with Reference Compound X; read-out: pIC50 in the BRD4 BD2 assay (converted). As for the experimental part: (§1) Bromodomain binding was assessed utilising a time resolved fluorescent resonance energy transfer (TR-FRET) competition assay. To enable this approach a known, high affinity, pan-BET interacting small molecule was labelled with Alexa Fluor® 647, which is a far-red-fluorescent dye (Reference Compound X). Reference Compound X acts as a reporter of bromodomain binding and is the acceptor fluorophore component of the TR-FRET pair. Europium chelate, conjugated to an anti-6*His antibody, was utilised as the donor fluorophore in the TR-FRET pair. The anti-6*His antibody binds selectively to a six Histidine purification epitope added to the amino-terminus of each of the BET tandem bromodomain protein constructs used in this study. A TR-FRET signal is generated when the donor and acceptor fluorophores are in close proximity, between 20-80 Å, which is enabled in this assay by binding of Reference Compound X to the bromodomain protein.
(§2) In order to generate a TR-FRET signal, donor fluorophore is excited by a laser at λ337 nm, which subsequently leads to emission at λ618 nm. If the acceptor fluorophore is in close proximity then energy transfer can occur, which leads to emission of Alexa Fluor® 647 at λ665 nm. In the presence of competitor compound, Reference Compound X can be displaced from binding to the bromodomain. If displacement occurs, the acceptor fluorophore is no longer in proximity to the donor fluorophore, which prevents fluorescent energy transfer and, subsequently, a loss of Alexa Fluor® 647 emission at λ665 nm.
(§3) The competition of the compounds of formula (I) with Reference Compound X for binding to the BET family (BRD2, BRD3, BRD4 and BRDT) was assessed using protein truncates spanning both bromodomain 1 (BD1) and bromodomain 2 (BD2). In order to monitor differential binding to either BD1 or BD2, single residue mutations of key tyrosines to alanine were made in the acetyl lysine binding pockets. To validate this approach, a double residue mutant tandem domain protein was produced for each of the BET family members. Utilising a Fluorescence Polarisation approach, binding affinities for each of the single and double mutants for Reference Compound X were determined. […] The affinities of the single mutated bromdomain tandem proteins for Reference Compound X were equi-potent with the corresponding non-mutated BET protein. […] In the TR-FRET competition assay, Reference Compound X is used at a concentration that is equivalent to the Kd for the non-mutated bromodomain, which ensures that no binding at the mutated bromodomain is detected.
(§4) Recombinant Human Bromodomains [(BRD2 (1-473) (Y113A) and (Y386A), BRD3 (1-435) (Y73A) and (Y348A) BRD4 (1-477) (Y97A) and (Y390A) and BRDT (1-397) (Y66A) and (Y309A)] were expressed in E. coli cells (in pET15b vector for BRD2/3/4 and in pET28a vector for BRDT) with a 6-His tag at the N-terminal. The His-tagged Bromodomain pellet was resuspended in 50 mM HEPES (pH 7.5), 300 mM NaCl, 10 mM imidazole & 1 μL/mL protease inhibitor cocktail and extracted from the E. coli cells using sonication and purified using a nickel sepharose high performance column, the proteins were washed and then eluted with a linear gradient of 0-500 mM imidazole with buffer 50 mM HEPES (pH 7.5), 150 mM NaCl, 500 mM imidazole, over 20 column volumes. Final purification was completed by Superdex 200 prep grade size exclusion column. Purified protein was stored at −80° C. in 20 mM HEPES pH 7.5 and 100 mM NaCl. Protein identity was confirmed by peptide mass fingerprinting and predicted molecular weight confirmed by mass spectrometry.
All assay components were dissolved in an assay buffer composing of 50 mM HEPES pH 7.4, 50 mM NaCl, 5% Glycerol, 1 mM DTT and 1 mM CHAPS. Reference Compound X was diluted, in assay buffer containing 20 nM single mutant, tandem bromodomain protein, to a concentration equivalent to 2*Kd for this bromodomain. […]
Background: TR-FRET usually uses a lanthanide donor and a delayed reading to cut background.

The subject of the next assay is BRD4 BD1 and BRD4 BD2. Description: BRD4 BD1 and BRD4 BD2 TR-FRET assays (selectivity for BRD4 BD2 over BRD4 BD1). The following applies: for selectivity for BRD4 BD2 over BRD4 BD1: BRD4 BD2 pIC50 − BRD4 BD1 pIC50, in at least one of the TR-FRET assays. Format: binding, Human. As for the experimental part: as §1, §2, §3
as §4, with “Protein identity was confirmed by peptide mass fingerprinting and predicted molecular weight confirmed by mass spectrometry.” left out

The subject of assay [1] is BET family (BRD2, BRD3, BRD4 and BRDT) tandem bromodomain proteins. Description: Fluorescence Polarisation binding of Reference Compound X to single and double mutant tandem BET proteins. Further details: species or system Human. The following applies: single residue (Tyr to Ala) mutants. Here is the method:
as §3, with “detected. […]” for “detected.”

The structures appear in SMILES notation.

Take `CNC(=O)c1cc(C(=O)NCC(C)O)cc(Cc2ccccc2)n1` (racemic) [Example 61, (+/−)-6-Benzyl-N^4-(2-hydroxypropyl)-N^2-methylpyridine-2,4-dicarboxamide]: the IC50 on BRD4 BD2 is 1000 to 10000 nM. In the case of `CNC(=O)c1cc(C(=O)Nc2cn[nH]c2)cc(C(OC)c2ccccc2)n1` (single isomer, unassigned) [Example 55, (S*)-6-(Methoxy(phenyl)methyl)-N^2-methyl-N^4-(1H-pyrazol-4-yl)pyridine-2,4-dicarboxamide], the “selectivity for BRD4 BD2 over BRD4 BD1” value in the assay on BRD4 BD1 and BRD4 BD2 stood at 2.7 log unit. On BRD4 BD2, the IC50 is 20 nM.

On to `CNC(=O)c1cc(C(=O)Nc2cnn(C)c2)cc(Cc2ccccc2)n1` [Example 11, 6-Benzyl-N^2-methyl-N^4-(1-methyl-1H-pyrazol-4-yl)pyridine-2,4-dicarboxamide], for which the “selectivity for BRD4 BD2 over BRD4 BD1” value in the assay with BRD4 BD1 and BRD4 BD2 came to 2.7 log unit. Moreover, the IC50 at BRD4 BD2 was 15.8 nM.

Turning to `CNC(=O)c1cc(C(=O)Nc2cn[nH]c2)cc(Cc2ccccc2)n1` [Example 12, 6-Benzyl-N^2-methyl-N^4-(1H-pyrazol-4-yl)pyridine-2,4-dicarboxamide], the “selectivity for BRD4 BD2 over BRD4 BD1” value with BRD4 BD1 and BRD4 BD2 is 2.7 log unit. The IC50 on BRD4 BD2 was 20 nM. With `CNC(=O)c1cc(C(=O)Nc2cn[nH]c2)cc([C@@H](C)c2ccccc2)n1` [Example 16, (S)-N^2-Methyl-6-(1-phenylethyl)-N^4-(1H-pyrazol-4-yl)pyridine-2,4-dicarboxamide], the “selectivity for BRD4 BD2 over BRD4 BD1” value in the assay on BRD4 BD1 and BRD4 BD2 is listed as 3.0 log unit. In the assay on BRD4 BD1 and BRD4 BD2 (from the pIC50 difference), the “fold selective for BRD4 BD2 over BRD4 BD1” value was determined as 1000 fold. In addition, the IC50 on BRD4 BD2 was 10 nM. On to `CNC(=O)c1cc(C(=O)NCCOC)cc(Cc2cccc(OC)c2)n1` [Example 59, 6-(3-Methoxybenzyl)-N^4-(2-methoxyethyl)-N^2-methylpyridine-2,4-dicarboxamide], for which the IC50 on BRD4 BD2 was 1000 to 10000 nM. Still for that read-out and setting: then `CNC(=O)c1cc(C(=O)NC(C)(C)C)cc(Cc2ccccc2)n1` [Example 66, 6-Benzyl-N^4-(tert-butyl)-N^2-methylpyridine-2,4-dicarboxamide], with 1000 to 10000 nM; and `CNC(=O)c1cc(C(=O)Nc2nc(C)no2)cc([C@@H](C)c2ccccc2)n1` [Example 74, (S)-N^2-Methyl-N^4-(3-methyl-1,2,4-oxadiazol-5-yl)-6-(1-phenylethyl)pyridine-2,4-dicarboxamide], with 1000 to 10000 nM. Same read-out and setting: under `CNC(=O)c1cc(C(=O)Nc2nnc(C)o2)cc([C@@H](C)c2ccccc2)n1` [Example 75, (S)-N^2-Methyl-N^4-(5-methyl-1,3,4-oxadiazol-2-yl)-6-(1-phenylethyl)pyridine-2,4-dicarboxamide] stands 1000 to 10000 nM; under `CNC(=O)c1cc(C(=O)Nc2nncn2C)cc([C@@H](C)c2ccccc2)n1` [Example 76, (S)-N^2-Methyl-N^4-(4-methyl-4H-1,2,4-triazol-3-yl)-6-(1-phenylethyl)pyridine-2,4-dicarboxamide], 1000 to 10000 nM.

Turning to `COc1ccc2c(c1)C(c1ccc(Cl)cc1)=N[C@@H](CC(=O)NCCCCCNC(=O)CCCCCC1(C)/C(=C/C=C/C=C/C3=[N+](CCCCS(=O)(=O)O)c4ccc(S(=O)(=O)O)cc4C3(C)C)N(CCCCS(=O)(=O)[O-])c3ccc(S(=O)(=O)O)cc31)c1nnc(C)n1-2` (stereo partly shown) [Reference Compound X], in assay [1], the “affinity of single mutated bromodomain tandem proteins compared with corresponding non-mutated BET protein” value is given as “equi-potent”.
